Results: the NIST ThermoML archive (doi:10.1021/je200616t)
Several values for one entry are separate records, joined by “and”; a condition that tells them apart may be missing. Identical values can stand only once.

What was measured:
[1] = Liquid, MP522 conductivity instrument
[2] = xn = mol fraction of the nth substance listed; settings: 298.15 K, 101 kPa, Liquid, MP522 conductivity instrument

CCCC[n+]1ccc(C)cc1.O=S(=O)([N-]S(=O)(=O)C(F)(F)F)C(F)(F)F
Settings | electrical conductivity
[1], 298.15 K, 101 kPa | 0.332 S/m and 0.333 S/m

CC[n+]1ccc(C)cc1.O=S(=O)([N-]S(=O)(=O)C(F)(F)F)C(F)(F)F
Settings | electrical conductivity
[1], 298.15 K, 101 kPa | 0.771 S/m and 0.769 S/m

CCCC[n+]1ccc(C)cc1.O=S(=O)([N-]S(=O)(=O)C(F)(F)F)C(F)(F)F + CCO
[2]
Settings | electrical conductivity [S/m]
x1 = 0.011 | 0.243
x1 = 0.0125 | 0.269
x1 = 0.015 | 0.311
x1 = 0.0186 | 0.369
x1 = 0.0258 | 0.474
x1 = 0.0376 | 0.623
x1 = 0.0436 | 0.689
x1 = 0.0602 | 0.844
x1 = 0.0676 | 0.901
x1 = 0.0852 | 1.01
x1 = 0.1143 | 1.13
x1 = 0.1262 | 1.16
x1 = 0.1387 | 1.19
x1 = 0.1537 | 1.21
x1 = 0.1811 | 1.23
x1 = 0.2232 | 1.22
x1 = 0.2748 | 1.17
x1 = 0.3347 | 1.1
x1 = 0.3809 | 1.03
x1 = 0.4405 | 0.939
x1 = 0.5405 | 0.793
x1 = 0.642 | 0.663
x1 = 0.7148 | 0.579
x1 = 0.8106 | 0.482
x1 = 0.9328 | 0.379
x1 = 1 | 0.333

CC[n+]1ccc(C)cc1.O=S(=O)([N-]S(=O)(=O)C(F)(F)F)C(F)(F)F + CCO
[2]
Settings | electrical conductivity [S/m]
x1 = 0.0118 | 0.292
x1 = 0.0152 | 0.36
x1 = 0.021 | 0.468
x1 = 0.0327 | 0.669
x1 = 0.0593 | 1.04
x1 = 0.07 | 1.16
x1 = 0.0857 | 1.31
x1 = 0.1196 | 1.56
x1 = 0.1573 | 1.73
x1 = 0.2361 | 1.87
x1 = 0.3013 | 1.86
x1 = 0.3773 | 1.77
x1 = 0.4527 | 1.65
x1 = 0.53 | 1.51
x1 = 0.608 | 1.37
x1 = 0.6908 | 1.22
x1 = 0.7803 | 1.07
x1 = 0.8913 | 0.903
x1 = 1 | 0.769

CCCC[n+]1ccc(C)cc1.O=S(=O)([N-]S(=O)(=O)C(F)(F)F)C(F)(F)F + CO
[2]
Settings | electrical conductivity [S/m]
x1 = 0.00761 | 0.7
x1 = 0.00979 | 0.836
x1 = 0.0118 | 0.951
x1 = 0.0142 | 1.07
x1 = 0.0176 | 1.24
x1 = 0.021 | 1.38
x1 = 0.0297 | 1.69
x1 = 0.0366 | 1.86
x1 = 0.0544 | 2.15
x1 = 0.0653 | 2.25
x1 = 0.0711 | 2.28
x1 = 0.0773 | 2.32
x1 = 0.1083 | 2.34
x1 = 0.1388 | 2.25
x1 = 0.1724 | 2.11
x1 = 0.1977 | 2
x1 = 0.2256 | 1.87
x1 = 0.2662 | 1.68
x1 = 0.3346 | 1.4
x1 = 0.3989 | 1.18
x1 = 0.481 | 1.02
x1 = 0.5543 | 0.861
x1 = 0.6316 | 0.719
x1 = 0.714 | 0.599
x1 = 0.7932 | 0.504
x1 = 0.8534 | 0.444
x1 = 0.9551 | 0.362
x1 = 1 | 0.332

CC[n+]1ccc(C)cc1.O=S(=O)([N-]S(=O)(=O)C(F)(F)F)C(F)(F)F + CO
[2]
Settings | electrical conductivity [S/m]
x1 = 0.00925 | 0.925
x1 = 0.0105 | 1.01
x1 = 0.0144 | 1.27
x1 = 0.0176 | 1.45
x1 = 0.0227 | 1.72
x1 = 0.0313 | 2.1
x1 = 0.0393 | 2.36
x1 = 0.0492 | 2.62
x1 = 0.0575 | 2.79
x1 = 0.0666 | 2.94
x1 = 0.0757 | 3.05
x1 = 0.0856 | 3.14
x1 = 0.0993 | 3.22
x1 = 0.1435 | 3.26
x1 = 0.1601 | 3.23
x1 = 0.1736 | 3.2
x1 = 0.1902 | 3.14
x1 = 0.2037 | 3.09
x1 = 0.2297 | 2.97
x1 = 0.2575 | 2.84
x1 = 0.284 | 2.72
x1 = 0.3231 | 2.53
x1 = 0.3561 | 2.39
x1 = 0.3932 | 2.23
x1 = 0.4574 | 2
x1 = 0.5075 | 1.81
x1 = 0.5713 | 1.61
x1 = 0.6042 | 1.52
x1 = 0.6803 | 1.33
x1 = 0.7416 | 1.2
x1 = 0.8215 | 1.04
x1 = 0.8959 | 0.912
x1 = 0.918 | 0.883
x1 = 1 | 0.771

CCCC[n+]1ccccc1.O=S(=O)([N-]S(=O)(=O)C(F)(F)F)C(F)(F)F [1-butylpyridinium bis[(trifluoromethyl)sulfonyl]imide]
electrical conductivity, [1]
Settings | 283.15 K | 293.15 K | 298.15 K | 303.15 K | 313.15 K
101 kPa | 0.151 S/m | – | 0.308 S/m | 0.377 S/m | 0.542 S/m and 0.54 S/m
101.33 kPa | 0.15 S/m and 0.151 S/m | 0.246 S/m | 0.307 S/m and 0.308 S/m | 0.378 S/m and 0.377 S/m | 0.541 S/m and 0.542 S/m and 0.54 S/m

CCCC[n+]1ccccc1.O=S(=O)([N-]S(=O)(=O)C(F)(F)F)C(F)(F)F [1-butylpyridinium bis[(trifluoromethyl)sulfonyl]imide] + CCO
[2]
Settings | electrical conductivity [S/m]
x1 = 0.02 | 0.389
x1 = 0.0313 | 0.543
x1 = 0.0415 | 0.66
x1 = 0.0601 | 0.83
x1 = 0.0722 | 0.915
x1 = 0.103 | 1.06
x1 = 0.1448 | 1.16
x1 = 0.1659 | 1.18
x1 = 0.184 | 1.19
x1 = 0.196 | 1.19
x1 = 0.2208 | 1.18
x1 = 0.2693 | 1.14
x1 = 0.3122 | 1.09
x1 = 0.362 | 1.02
x1 = 0.424 | 0.926
x1 = 0.4616 | 0.872
x1 = 0.5169 | 0.793
x1 = 0.5597 | 0.735
x1 = 0.6073 | 0.674
x1 = 0.6706 | 0.598
x1 = 0.7463 | 0.516
x1 = 0.8415 | 0.426
x1 = 0.8925 | 0.383
x1 = 1 | 0.307
